In PMC12652692, “Synthesis and In Vitro Anticancer Evaluation of Novel Phosphonium Derivatives of Chrysin” (International Journal of Molecular Sciences, 2025):

Key:
Type in all cases: cell-based
[1] = test system: 60 human cancer cell lines; assay: NCI60 one-dose screen, overall mean; conditions: mean over all 60 cell lines, read-out: Mean growth percent
Description: The screening results are presented in the Supplementary Materials (Table S1), where the cytotoxicity was determined for the 10 µM concentration. […] The negative numbers indicate significant decreases in the cell number. […] Compared to the reference chrysin (2), all phosphonium hybrids (3a–h) had significant antiproliferative activities. […] At the same time, it should be noted that more than 60% average reduction was also obtained in the case of the other examined conjugates (3a–h).
A detailed description of the NCI screening procedures, including the one-dose and five-dose tests, can be found in the Supplementary Materials, on the website of NCI [39], and in our previous work.
A detailed description of the NCI screening procedures can also be found on the website of NCI [39], and in our […]
All candidates were examined at first at a single high dose (10 μM) in the full NCI60 cell panel. The value reported for the one-dose test is growth relative to the no-drug control and relative to the time zero number of cells. This made possible the disclosure of both growth inhibition (numbers between 0 and 100) and lethality (numbers less than 0). For example, a value of 100 means no growth inhibition. A value of 20 would mean 80% growth inhibition. A value of 0 means no net growth over the course of the analysis. A value of −20 would mean 20% lethality. A value of −100 means all cells are dead. […]
concentration levels. The human tumor cell lines of the cancer screening panel were grown in RPMI 1640 medium containing 5% fetal bovine serum and 2 mM l-glutamine. Characteristically, cells were injected in 96-well microtiter plates in 0.1 mL at plating densities ranging from 5000 to 40,000 cells/well, depending on the doubling time of individual cell lines. After cell inoculation, the microtiter plates were incubated at 37 °C, 5% carbon dioxide, 95% air, and 100% relative humidity for 24 hours before the addition of tested compounds. After 24 hours, 2 plates of each cell line were fixed in situ with Cl3COOH (TCA), to represent a measurement of the cell population for each cell line at the time of drug addition (tz). Tested compounds were solubilized in DMSO at 400-fold the desired final maximum test concentration and stored frozen before application. In the course of the drug addition, an aliquot of frozen concentrate was thawed and diluted to twice the desired final maximum test concentration with a complete medium containing 50 μg mL−1 gentamicin. Additional four, 10-fold or ½ log serial dilutions were produced to furnish a total of five drug concentrations plus control. Aliquots of 0.1 mL of these different drug dilutions were added to the appropriate microtiter wells already containing 0.1 mL of medium, resulting in the required final drug concentrations.
Following drug addition, the plates were incubated at 37 °C, 5% carbon dioxide, 95% air, and 100% relative humidity for an additional 48 hours. For adherent cells, the test was finished by the addition of cold Cl3COOH. Cells were fixed in situ by the addition of 50 μL of cold 50% (w/v) Cl3COOH, and incubated at 4 °C for 1 hour. The supernatant was discarded, and the plates were washed with H2O (5×) and dried in air. Sulforhodamine B (SRB) solution (0.1 mL) at 0.4% (w/v) in 1% CH3COOH was added to each well, and plates were incubated at RT for 10 min. After staining, the unbound dye was removed by washing five times with 1% CH3COOH, and the plates were dried in the air. The bound stain is afterward solubilized with a 10 mM trizma base, and the absorbance is read on an automated plate reader at λ = 515 nm. Utilizing the seven absorbance measurements [time zero (tz), control growth (c), and test growth in the presence of the drug at the five concentration levels (ti)], the percentage growth was determined at each of the drug concentration levels. Growth inhibition (%) was calculated as:
[(ti − tz)/(c − tz)] × 100, for concentrations where ti ≥ tz (1) […]

IGROV1 = assay: NCI60 one-dose screen; conditions: Homo sapiens, IGROV-1; IGROV1, 10 μM; read-out: Growth percent
In short: (§1)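 Readings at 515 nm of bound sulforhodamine B gave percent growth versus a no-drug control and the time-zero population, where −100 means all cells dead. Cells had been exposed to a 10 µM single dose for 48 h.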

NCI-H522 = assay: NCI60 one-dose screen; conditions: Homo sapiens; NCI-H522, 10 μM; read-out: Growth percent
In short: as §1

OVCAR-8 = assay: NCI60 one-dose screen; conditions: Homo sapiens; OVCAR-8, 10 μM; read-out: Growth percent
In short: as §1

LOX IMVI = assay: NCI60 one-dose screen; conditions: Homo sapiens, read-out: Growth percent
In short: as §1

HS 578T = assay: NCI60 one-dose screen; conditions: Homo sapiens, read-out: Growth percent
In short: as §1

786-0 = assay: NCI60 one-dose screen; conditions: Homo sapiens; 786-0, 10 μM; read-out: Growth percent
In short: as §1

SF-295 = assay: NCI60 one-dose screen; conditions: Homo sapiens; SF-295, 10 μM; read-out: Growth percent
In short: as §1

A498 = assay: NCI60 one-dose screen; conditions: Homo sapiens; A498, 10 μM; read-out: Growth percent
In short: as §1

MDA-MB-231/ATCC = assay: NCI60 one-dose screen; conditions: Homo sapiens, read-out: Growth percent
In short: as §1

RPMI-8226 = assay: NCI60 one-dose screen; conditions: Homo sapiens; RPMI-8226, 10 μM; read-out: Growth percent
In short: as §1

NCI/ADR-RES = assay: NCI60 one-dose screen; conditions: Homo sapiens, read-out: Growth percent
In short: as §1

SK-MEL-5 = assay: NCI60 one-dose screen; conditions: Homo sapiens; SK-MEL-5, 10 μM; read-out: Growth percent
In short: as §1

NCI-H460 = assay: NCI60 one-dose screen; conditions: Homo sapiens; NCI-H460, 10 μM; read-out: Growth percent
In short: as §1

TK-10 = assay: NCI60 one-dose screen; conditions: Homo sapiens; TK-10, 10 μM; read-out: Growth percent
In short: as §1

DU-145 = assay: NCI60 one-dose screen; conditions: Homo sapiens; DU-145, 10 μM; read-out: Growth percent
In short: as §1

MOLT-4 = assay: NCI60 one-dose screen; conditions: Homo sapiens; MOLT-4, 10 μM; read-out: Growth percent
In short: as §1

OVCAR-3 = assay: NCI60 one-dose screen; conditions: Homo sapiens; OVCAR-3, 10 μM; read-out: Growth percent
In short: as §1

O=c1cc(-c2ccccc2)oc2cc(OCCCC[P+](C3CCCCC3)(C3CCCCC3)C3CCCCC3)cc(O)c12 [3e] showed an activity at 10 µM [1] of -76%, an activity at 10 µM (IGROV1) of -59.4% and an activity at 10 µM (NCI-H522) of -88%. It also gave an activity at 10 µM (OVCAR-8) of -86.4%, an activity at 10 µM (LOX IMVI) of -90.5% and an activity at 10 µM (HS 578T) of -62.1%. For the same compound, the activity at 10 µM (786-0) was -80.1%, the activity at 10 µM (SF-295) was -87% and the activity at 10 µM (A498) was -87.6%. The activity at 10 µM (MDA-MB-231/ATCC) was -81.6%, the activity at 10 µM (RPMI-8226) was -62.6% and the activity at 10 µM (NCI/ADR-RES) was -20.8%. It also gave an activity at 10 µM (SK-MEL-5) of -100%, an activity at 10 µM (NCI-H460) of -66% and an activity at 10 µM (TK-10) of -91.3%. For the same compound, the activity at 10 µM (DU-145) was -96.1%, the activity at 10 µM (MOLT-4) was -60.6% and the activity at 10 µM (OVCAR-3) was -81.9%.
Compound COc1c(C)cc([P+](CCCCOc2cc(O)c3c(=O)cc(-c4ccccc4)oc3c2)(c2cc(C)c(OC)c(C)c2)c2cc(C)c(OC)c(C)c2)cc1C [3f] has an activity at 10 µM [1] of -63.4%, an activity at 10 µM (IGROV1) of -38% and an activity at 10 µM (NCI-H522) of -77.3%. The activity at 10 µM (OVCAR-8) was -68.1%, the activity at 10 µM (LOX IMVI) was -68.7% and the activity at 10 µM (HS 578T) was -57.7%. The activity at 10 µM (786-0) was -47%, the activity at 10 µM (SF-295) was -63.6% and the activity at 10 µM (A498) was -83.4%. For the same compound, the activity at 10 µM (MDA-MB-231/ATCC) was -74.8%, the activity at 10 µM (RPMI-8226) was -42.9% and the activity at 10 µM (NCI/ADR-RES) was -66.8%. For the same compound, the activity at 10 µM (SK-MEL-5) was -75.2%, the activity at 10 µM (NCI-H460) was -58.6% and the activity at 10 µM (TK-10) was -84.7%. For the same compound, the activity at 10 µM (DU-145) was -92.7%, the activity at 10 µM (MOLT-4) was -42.5% and the activity at 10 µM (OVCAR-3) was -69.8%.
Cc1ccccc1[P+](CCCCOc1cc(O)c2c(=O)cc(-c3ccccc3)oc2c1)(c1ccccc1C)c1ccccc1C [3g] showed an activity at 10 µM [1] of -97.7%, an activity at 10 µM (IGROV1) of -99.1% and an activity at 10 µM (NCI-H522) of -98.5%. For the same compound, the activity at 10 µM (OVCAR-8) was -95.9%, the activity at 10 µM (LOX IMVI) was -97.5% and the activity at 10 µM (HS 578T) was -98.3%. It also gave an activity at 10 µM (786-0) of -98.1%, an activity at 10 µM (SF-295) of -98.7% and an activity at 10 µM (A498) of -99.1%. For the same compound, the activity at 10 µM (RPMI-8226) was -98.5%, the activity at 10 µM (NCI/ADR-RES) was -97.9% and the activity at 10 µM (SK-MEL-5) was -97.9%. It also gave an activity at 10 µM (NCI-H460) of -91.5%, an activity at 10 µM (TK-10) of -99.3% and an activity at 10 µM (DU-145) of -97.1%. For the same compound, the activity at 10 µM (MOLT-4) was -98.6% and the activity at 10 µM (OVCAR-3) was -99.1%.
O=c1cc(-c2ccccc2)oc2cc(OCCCC[P+](c3ccccc3)(c3ccccc3)c3ccccn3)cc(O)c12 [3h] showed an activity at 10 µM [1] of -72.3%, an activity at 10 µM (IGROV1) of -80.1% and an activity at 10 µM (NCI-H522) of -72.3%. It also gave an activity at 10 µM (OVCAR-8) of -91.6%, an activity at 10 µM (LOX IMVI) of -84.1% and an activity at 10 µM (HS 578T) of -35.8%. It also gave an activity at 10 µM (786-0) of -74.5%, an activity at 10 µM (SF-295) of -92.7% and an activity at 10 µM (A498) of -94%. The activity at 10 µM (MDA-MB-231/ATCC) was -94.3%, the activity at 10 µM (RPMI-8226) was -35.3% and the activity at 10 µM (NCI/ADR-RES) was -41.3%. The activity at 10 µM (SK-MEL-5) was -96.3%, the activity at 10 µM (NCI-H460) was -84.2% and the activity at 10 µM (TK-10) was -93.3%. The activity at 10 µM (DU-145) was -95.3%, the activity at 10 µM (MOLT-4) was 21.1% and the activity at 10 µM (OVCAR-3) was -93.7%.
O=c1cc(-c2ccccc2)oc2cc(O)cc(O)c12 [compound 2, 5,7-dihydroxyflavone, reference compound] gave an activity at 10 µM [1] of 96.1%, an activity at 10 µM (IGROV1) of 95.2% and an activity at 10 µM (NCI-H522) of 89%. It also gave an activity at 10 µM (OVCAR-8) of 95.2%, an activity at 10 µM (LOX IMVI) of 85.1% and an activity at 10 µM (HS 578T) of 92.5%. It also gave an activity at 10 µM (786-0) of 99.2%, an activity at 10 µM (SF-295) of 99.9% and an activity at 10 µM (A498) of 86.6%. For the same compound, the activity at 10 µM (MDA-MB-231/ATCC) was 82.6%, the activity at 10 µM (RPMI-8226) was 101% and the activity at 10 µM (NCI/ADR-RES) was 92.8%. The activity at 10 µM (SK-MEL-5) was 92.8%, the activity at 10 µM (NCI-H460) was 98.3% and the activity at 10 µM (TK-10) was 107%. For the same compound, the activity at 10 µM (DU-145) was 92%, the activity at 10 µM (MOLT-4) was 106% and the activity at 10 µM (OVCAR-3) was 97.6%.
